We go through three molecules from patent EP3009138B1, “MANGIFERA EXTRACT FOR THE MANAGEMENT OF OBESITY AND/OR WEIGHT” (Kodimule, Shyam Prasad, priority 2014, dated 2016).

In assay [1] the target is T1, Porcine Pancreatic Lipase (Sus scrofa, UniProt P00591).
T1 sequence (P00591 1-450): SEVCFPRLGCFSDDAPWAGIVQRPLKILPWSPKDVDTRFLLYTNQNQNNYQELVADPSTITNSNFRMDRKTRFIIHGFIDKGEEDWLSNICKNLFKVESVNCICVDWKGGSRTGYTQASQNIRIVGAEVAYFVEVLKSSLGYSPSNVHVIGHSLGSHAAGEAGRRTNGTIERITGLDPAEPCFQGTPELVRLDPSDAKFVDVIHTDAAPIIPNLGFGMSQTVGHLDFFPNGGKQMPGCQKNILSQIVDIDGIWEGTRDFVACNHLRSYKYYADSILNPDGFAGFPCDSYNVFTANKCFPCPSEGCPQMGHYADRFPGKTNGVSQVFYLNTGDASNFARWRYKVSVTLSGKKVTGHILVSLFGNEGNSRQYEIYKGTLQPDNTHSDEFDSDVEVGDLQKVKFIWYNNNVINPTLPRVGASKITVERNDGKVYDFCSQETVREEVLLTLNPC
The assay can be described thus: Anti-lipase assay (triolein emulsion). The assay is classed as biochemical. The note with it: Sample Concentration: 1.2 mg/ml; 37 °C, 30 min. Here is the method:
A suspension containing 1% (V/V) of triolein and 1% (V/V) of tween 40 in 0.1M phosphate buffer (pH-8) was prepared and emulsified. The assay was initiated by adding 800µl of the Triolein emulsion to 200µl of Porcine Pancreatic Lipase (0.5 g Pancreatic Lipase in 15 ml of 0.1 M phosphate buffer at pH-8) and 200 µl of the HC extract (100 µg/ml concentration). The resultant mixture was mixed and the absorbance was measured immediately at 450 nm (T^0). The mixtures were then incubated at 37 °C for 30 min and the absorption was measured at 450 nm (T^30). Inhibition % = {A(cont)−A(test) × 100; A(cont)} [formula] where: • A(cont) - is the absorbance of the control (TC^0-TC^30) • A(test) - is the absorbance of the sample test /standard (T^0-T^30) (the HC, mangiferin and quercetin)

The subject of the next assay is high fat diet fed rats. The assay can be described thus: Anti-obesity activity in high fat diet fed rats. Type of assay: in vivo, Male Wistar rats. The note with it: male rats, Orlistat 30 mg/kg (Group III). Here is the method: Objective: The objective was to investigate the effect of the HC against high fat diet fed rats. Animals: Male Wistar rats (160 to 200 g); No of animals: 36; Housing: 3/ cage, 12 hrs light/dark cycle; Temperature: 25±2°c; Model & Composition of the Diet: High fat diet in rats: 25% Lard, 5% Soyabean oil; 5% starch; 65% Normal commercial available rat feed; Groups: Male Wistar rats were divided into six groups with six animals in each group [table]

Assay [2] is described as follows: Lipid peroxidation inhibitory assay (TBARS). The assay is classed as biochemical. The note with it: Sample Concentration: 100-500µ g/ml. Here is the method: A modified Thiobarbituric acid reactive species (TBARS) assay (Ohkowa et al., 1979) is used to measure lipid peroxidation formed using egg yolk homogenate as lipid rich media (Ruberto et al., 2000).
Take 0.5ml of egg homogenate (10%in distilled water) and 0.1 ml of test sample in the concentration range 100-500µ g/ml in a test tube and volume made up to 1 ml by adding distilled water. Finally add 0.05 ml ferrous sulphate (0.07M) to the above mixture and incubate for 30 min to induce the lipid peroxidation. Thereafter add 1.5 ml of 20% acetic acid (pH 3.5) and 1.5 ml of (0.8%in 1.1% SDS) TBA and 0.05 ml (20%) TCA then heated in boiling water bath for 60 min. After cooling 5 ml of butanol will be added to all the test tubes and centrifuged at 3000 rpm for 10 min. Measure the absorbance of the organic upper layer at 532 nm. The percentage inhibition of lipid peroxidation calculated from the formula, % Inhibition = ((Abcontrol−Abtest sample)*100)/(Abcontrol) [formula] where: • Ab (cont) - is the absorbance of the control • Ab (test sample) - is the absorbance of the test sample /standard Table 12 Lipid peroxidation inhibitory assay test results

A short description of assay [3]: Hydrogen peroxide (H2O2) scavenging activity. Type of assay: biochemical. Here is the method:
Hydrogen peroxide scavenging activity of the HC was estimated in this study where initially, HC solutions were prepared at different concentrations in distilled water and the resultant solutions were mixed in 0.6 ml of 40 mM H2O2 solution prepared in phosphate buffer (0.1 M pH 7.4) and incubated for 10 min. The absorbance was measured at 230 nm against a blank solution containing H2O2. Similar procedure was repeated for HC, Mangiferin and Quercetin. The amount of hydrogen peroxide radical inhibited was calculated using the following equation. The result is expressed as % H2O2 radical scavenging activity. H2 O2 radical scavenging activity = {(Abs control−Abs sample) × 100; (Abs control)} [formula] where: • Abs control - Absorbance of H2O2 radical • Abs sample - Absorbance of sample extract/ standard (the HC, mangiferin and quercetin)

Assay [4] is described as follows: Superoxide Dismutase (SOD) activity / superoxide anion scavenging (NBT/NADH/PMS). Type of assay: biochemical. The note with it: 100 µg/ml (method). Here is the method:
The superoxide anion scavenging activity of the HC was measured in this test. 1 ml (156 µM) of Nitro blue tetrazolium (NBT), 1 ml (468 µM) of nicotinamide adenine dinucleotide (NADH) and 3 ml of the HC at 100 µg/ml concentration were admixed in phosphate buffer (pH 7.4). The reaction was started by adding 100 µl of phenazine methosulfate (PMS) (0.18mg/ml) and the mixture was incubated at 25°C for 5 min followed by measuring the absorbance at 560 nm. Similar solutions were prepared for quercetin and mangiferin and the percentage of inhibition was calculated by using the formula provided herein-below; the result was expressed as % superoxide dismutase scavenging activity. % superoxide dismutase inhibition = {(Abs control−Abs sample) × 100; Abs control} [formula] where: • Abs control - Absorbance of control • Abs sample - Absorbance of sample extract/ standard (the HC, mangiferin and quercetin)

Marks after values point to notes of the source that are not given here.

`O=c1c2cc(O)c(O)cc2oc2cc(O)c([C@@H]3O[C@H](CO)[C@@H](O)[C@H](O)[C@H]3O)c(O)c12` [Mangiferin 98%, Mangiferin] yielded an inhibition at 1200 µg/mL in assay [1] of 41.8%.

`CCCCCCCCCCC[C@@H](C[C@@H]1OC(=O)[C@H]1CCCCCC)OC(=O)[C@H](CC(C)C)NC=O` [Orlistat]: the Initial weight with high fat diet fed rats (baseline, in g (unit assumed)) is given as 182.00±0.96. Further, in the assay with high fat diet fed rats, the “Atherogenic Index” value was 1.39±0.15***^b, the Average food intake is 13.45±0.28^nsb g/rat, the BAT was 0.28± 0.01^nsb and the “Difference in body weight gain” value is given as 79.82±2.58***^b. Moreover, in the assay on high fat diet fed rats, the “Epididymal fat pad Left” value was 0.52± 0.03^nsb, the “Epididymal fat pad Right” value is given as 0.55± 0.02^nsb, the “Fecal fatty acid estimation” value was 4.1±0.26*^b and the Insulin is 0.15±0.005^nsb mU/L. In the assay with high fat diet fed rats, the “Liver (organ weight)” value is 2.8±0.08 ***^b, the Liver triglycerides is recorded as 87.77±2.28*^b, the Mesenteric fat is reported as 1.02±0.07 ^nsb and the “Perirenal fat pad tissue Left” value is on record as 0.77± 0.08*^b. Also, in the assay on high fat diet fed rats, the “Perirenal fat pad tissue Right” value is recorded as 0.77±0.08*^b and the “serum Glucose” value is given as 92.00±2.89**^b mg/dL. In addition, the Final weight with high fat diet fed rats (in g (unit assumed)) was found to be 261.80±2.53. Moreover, in the assay on high fat diet fed rats (serum), the HDL-c is given as 21.72±1.22**^b mg/dL, the LDL-c was 13.20±1.71**^b mg/dL, the Total cholesterol is recorded as 50.91±0.62***^b mg/dL and the Triglyceride was 79.96±1.13***^b mg/dL. Also, the inhibition at 1200 µg/mL in assay [1] was found to be 75.3%.

On to `O=c1c(O)c(-c2ccc(O)c(O)c2)oc2cc(O)cc(O)c12` [Quercetin (Standard), Quercetin], for which the “Lipid peroxidation inhibitory assay % inhibition” value in assay [2] worked out at 53.44%. Moreover, the H2O2 scavenging activity is reported as 5.6% in assay [3] (10 µg/ml), 14.55% in assay [3] (20 µg/ml), 18.86% in assay [3] (30 µg/ml) and 33.96% in assay [3] (40 µg/ml). For the same molecule, the “SOD activity % Inhibition” value in assay [4] was found to be 51.03%.
